Where a name gives a salt, the structure may show the parent alone. Each block holds one compound with its values, some of them ahead of it.
Assays:
[1] = test system: Mouse bone marrow derived macrophages; assay: Intracellular NAD+ in cultured bone marrow derived macrophages; type: cell-based; settings: 1 or 2 hours
Procedure: Mouse bone marrow derived macrophages were treated with dihydronicotinamide riboside (NRH) at the concentrations indicated, using PBS as control. […] Control group. Mouse bone marrow derived macrophages were treated with dihydronicotinamide riboside (NRH) at the concentrations indicated, using PBS as control.

[2] = Stability of NRH or NR spiked in isolated mouse plasma; type: in vitro ADME; settings: for levels of spiked compound in plasma: isolated mouse plasma, 2 h of incubation
Text: (§1) Levels of NRH and other NAD-related metabolites in biological samples were obtained by using a cold liquid-liquid extraction using a mixture of methanol:water:chloroform in 5:3:5 (v/v), from which the polar phase was recovered for hydrophilic interaction ultra-high performance liquid chromatography mass spectrometry (UHPLC-MS) analysis. The UHPLC consisted of a binary pump, a cooled autosampler, and a column oven (DIONEX Ultimate 3000 UHPLC+ Focused, Thermo Scientific), connected to a triple quadrupole spectrometer (TSQ Vantage, Thermo Scientific) equipped with a heated electrospray ionisation (H-ESI) source. Of each sample, 2 µL were injected into the analytical column (2.1 mm × 150 mm, 5 µm pore size, 200 Å HILICON iHILIC®-Fusion(P)), guarded by a pre-column (2.1 mm × 20 mm, 200 Å HILICON iHILIC®-Fusion(P) Guard Kit) operating at 35° C. The mobile phase (10 mM ammonium acetate at pH 9, A, and acetonitrile, B) was pumped at 0.25 mL/min flow rate over a linear gradient of decreasing organic solvent (0.5-16 min, 90-25% B), followed by re-equilibration for a total run time of 30 min. The MS operated in positive mode at 3500 V with multiple reaction monitoring (MRM). The software Xcalibur v4.1.31.9 (Thermo Scientific) was used for instrument control, data acquisition and processing. Retention time and mass detection was confirmed by authentic standards.
(§2) NR degradation to NAM has been proposed as a limitation for its pharmacological efficacy. To evaluate whether NRH was also susceptible to degradation to NAM, we spiked NRH or NR in isolated mouse plasma. […] We also tested the stability of NRH in other matrixes. […] Finally, we also certified NRH stability in water (pH=7, at room temperature) for 48 h.

NAD+ levels [3] = assay: Hepatic NAD+ levels after oral administration in mice; type: in vivo; settings: oral administration (FIG. 2: 500 mg/kg, 1 hour)
Procedure: 8 week-old C57BI/6NTac mice were orally gavaged with either saline (as vehicle), NR (500 mg/kg) or NRH (500 mg/kg). After 1 hour, liver, skeletal muscle and kidney NAD^+ levels were evaluated. All results are expressed as mean +/-SEM of n=5 mice per group. * indicates statistical difference at p<0.05 vs. vs. saline-treated mice. # indicates statistical difference at p<0.05 vs. NR treated mice.
(§3) Levels of NRH and other NAD-related metabolites in biological samples were obtained by using a cold liquid-liquid extraction using a mixture of methanol:water:chloroform in 5:3:5 (v/v), from which the polar phase was recovered for hydrophilic interaction ultra-high performance liquid chromatography mass spectrometry (UHPLC-MS) analysis. The UHPLC consisted of a binary pump, a cooled autosampler, and a column oven (DIONEX Ultimate 3000 UHPLC+ Focused, Thermo Scientific), connected to a triple quadrupole spectrometer (TSQ Vantage, Thermo Scientific) equipped with a heated electrospray ionisation (H-ESI) source. Of each sample, 2 µL were injected into the analytical column (2.1 mm × 150 mm, 5 µm pore size, 200 Å HILICON iHILIC®-Fusion(P)), guarded by a pre-column (2.1 mm × 20 mm, 200 Å HILICON iHILIC®-Fusion(P) Guard Kit) operating at 35° C. […]

Splenocytes = assay: Intracellular NAD+ in splenocytes; type: cell-based; settings: splenocytes from 1 year old mice, 2 hours
Procedure: Then, 2 hours later, intracellular NAD+ levels were measured. * indicates p<0.05 vs. Control (0 mM) group. […] Then, 2 hours later, intracellular NAD+ levels were measured as described above.

[4] = NRH levels in liver, kidney and muscle after oral gavage; type: in vivo; settings: mice, oral gavage 250 mg/kg, 2 hours
Procedure: (§4) 8 week-old C57BI/6NTac mice were orally gavaged with either saline (as vehicle), and NRH (250 mg/kg). After 2 hours, liver, skeletal muscle and kidney NRH levels were evaluated. All results are expressed as mean +/-SEM of n=4 mice per group, as areas under the signal by LC-MS analysis, corrected by total protein amount of tissue.
as §1

NAD+ levels [5] = assay: Tissue NAD+ levels after IP injection in mice; type: in vivo; settings: IP 500 mg/kg, after 1 h
Text: as §1
The above results prompted us to test whether NRH could act as an effective NAD+ precursor in vivo. For this, we first intraperitoneally (IP) injected mice with either NR or NRH (500 mg/kg). […] Importantly, NRH was detectable in circulation after IP injection.

[6] = Stability in FBS supplemented media; type: in vitro ADME
Procedure: as §2

[7] = test system: Salmonella enterica serovar Typhimurium; assay: Anti-bacterial response of monocyte-derived macrophages against Salmonella (CFU counts); type: cell-based; settings: 0.01 mM for 42 h prior to infection, MOI 10, 1 h; gentamicin 2 h
Procedure: (§5) Monocyte-derived macrophages were treated with 0.01 mM NRH for 42 h prior to infection with Salmonella enterica serovar Typhimurium for 1 h using a multiplicity of infection of 10. Following infection, macrophages were treated with gentamicin for 2 h before cell lysis. Values show absolute colony forming unit (CFU) counts with each dot representing one donor and each line representing paired samples. Graphs show pooled data of 2 independent experiments with 2-3 donors/experiment.
as §5, with “donors/experiment. (FIG. 5).” for “donors/experiment.”

[8] = Circulating NRH, NR and NAM after IP injection in mice; type: in vivo
Text: as §1, with “standards. […]” for “standards.”

[9] = NRH levels in lung after oral gavage; type: in vivo; settings: mice, oral gavage of stable isotope-labelled NRH 250 mg/kg, 2 hours
Procedure: as §4, with “and an stable isotope-labelled” for “and”, “hours,” for “hours, liver, skeletal muscle and kidney”, “levels in the lung” for “levels”, “+/-SE” for “+/-SEM”
as §3, with “source.” for “source. Of each sample, 2 µL were injected into the analytical column (2.1 mm × 150 mm, 5 µm pore size, 200 Å HILICON iHILIC®-Fusion(P)), guarded by a pre-column (2.1 mm × 20 mm, 200 Å HILICON iHILIC®-Fusion(P) Guard Kit) operating at 35° C.”
8 week-old C57BI/6NTac mice were orally gavaged with either saline (as vehicle), and an stable isotope-labelled NRH (250 mg/kg). After 2 hours, NRH levels in the lung were evaluated. All results are expressed as mean +/-SE of n=4 mice per group, as areas under the signal by LC-MS analysis, corrected by total protein amount of tissue (FIG. 4).

[10] = Plasma NRH, NR and NAM after oral administration in mice; type: in vivo
Text: as §1
Oral administration of NRH led to very similar results to those observed after IP administration. […] NRH was detectable in plasma 1 h after oral administration. In contrast, NR levels were undetectable at 1 h after NR administration.

Stability in water = type: physicochemical; settings: pH=7, room temperature, 48 h
Procedure: as §2

RAW 264.7 macrophages = assay: Intracellular NAD+ in cultured RAW 264.7 macrophages; type: cell-based; settings: 1 hour
Procedure: RAW 264.7 macrophages were treated with dihydronicotinamide riboside (NRH) at the concentrations indicated. […] Control (0 mM) group. RAW 264.7 macrophages were treated with dihydronicotinamide riboside (NRH) at the concentrations indicated.

- levels of spiked compound in plasma [2]: remained stable
- NR production on incubation in isolated plasma ([2]; isolated plasma): did not lead to NR production
- NRH in kidney [4]: found intact, in high levels
- NRH in liver [4]: found intact, in high levels
- NRH in muscle [4]: found intact, in high levels
- degradation to NAM in FBS supplemented media [6]: did not degrade to NAM
- NRH in lung [9]: efficient biodistribution in the lung
- NRH in plasma ([10]; mice, 1 h after oral administration): detectable
- NRH concentration in plasma ([10]; mice, after oral gavage): 11.16 ± 1.74 µM
- stability in water (Stability in water): stability
Structure (SMILES): NC(=O)C1=CN([C@@H]2O[C@H](CO)[C@@H](O)[C@H]2O)C=CC1 [NRH, dihydronicotinamide riboside]
- intracellular NAD+ levels [1]: increases NAD+
- effect on hepatic NAD+ levels (NAD+ levels [3]): more potent effect on hepatic NAD+ levels than NR
- intracellular NAD+ levels (Splenocytes): increases NAD+
- NAD+ levels in kidney (NAD+ levels [5]): increased
- NAD+ levels in liver (NAD+ levels [5]): increased
- NAD+ levels in muscle (NAD+ levels [5]): increased
- anti-bacterial macrophage response against salmonella [7]: able to augment anti-bacterial macrophage response
- NR in circulation ([8]; after IP treatment, compared with NR injection): much higher levels than those detected after NR injection itself
- intracellular NAD+ levels (RAW 264.7 macrophages): increases NAD+

- levels of spiked compound in plasma [2]: decayed
- degradation to NAM in FBS supplemented media [6]: occurs
- NAM levels in circulation ([8]; IP 500 mg/kg): highly increased
- circulating NAM relative to that after NRH treatment ([10]; C57BL/6NTac, mouse, in vivo, po, 1 h): ~ 4 fold
- circulating NAM ([10]; mouse, in vivo, po): large increases
Structure (SMILES): NC(=O)c1ccc[n+]([C@@H]2O[C@H](CO)[C@@H](O)[C@H]2O)c1 [NR, 1-b-D-ribofuranosyl-3-pyridinecarboxamide salt, reference compound]
- NAD+ levels in kidney (NAD+ levels [5]): increased
- NAD+ levels in liver (NAD+ levels [5]): increased
- NAD+ levels in muscle (NAD+ levels [5]): increased
